Structures are written as SMILES. Read-outs that look alike come from different tables or passages of the source.

For series [1], the system named is IκBα and p38 MAP kinase phosphorylation. Put plainly: LPS- or TNF-α-induced phosphorylation of IκBα and p38 MAP kinase in RPMI 8226 cells. Type of series: cell-based. The settings on record: 13 μM. How it is done:
One ml/well of 2×10^6/ml RPMI 8226 cells (#CCL-155C, American Type Culture Collection) were seeded in 6-well plate in LGM-3 medium and cultured for overnight at 37° C., 5% CO2 and 95% humidified air. Formula (IIB-A1) was added to RPMI 8226 cells at the final concentration of 13 μM for 1 hr. DMSO was used as a control. Cells were then either stimulated by LPS (50 ng/ml) or by TNF-α (10 ng/ml) for various length of time. At the end of each period of stimulation, cells were harvested by centrifugation and cell pellets were washed once in ice-cold 1× Dulbecco's Phosphate buffered Saline (DPBS). To prepare samples for SDS-PAGE, cells were lysed in RIPA buffer (50 mM Tris-HCl, pH7.4, 0.9% NaCl, 1% Triton X-100, 0.25% Na-deoxycholate, 1 mM EDTA, 2 mM Na3VO4 and 1× protease inhibitors cocktail) for 15 min on ice. Cell lysates were cleared by centrifugation at 14,000 rpm, 4° C. for 10 min. Protein concentrations of cell lysates were determined by BCA protein assay kit prior to SDS-PAGE. Equal amount of proteins from various cell lysates were resolved on 10% NuPage MES precast gels and transferred to nitrocellulose membranes according to the manufacturer's instructions. […]

Series [2] deals with RPMI 8226 (MM). Kind of series: 48 hr cytotoxicity, RPMI 8226. The format is cell-based, human. The protocol:
(§1) Human colon adenocarcinoma HT-29 (ATCC# HTB-38), prostate adenocarcinoma PC-3 (ATCC# CRL-1435), breast adenocarcinoma MDA-MB231 (ATCC# HTB-26), Multiple Myeloma RPMI 8226 (ATCC# CCL-155) and U266 (ATCC # TIB-196) cell lines and human normal fibroblast CCD-27sk (ATCC# CRL-1475) were all purchased from ATCC (Manassas, Va.). The cells were maintained in their respective ATCC recommended culture media at 37° C., 5% CO2 and 95% humidified air.
(§2) The cytotoxicity assays were performed by seeding individual cell lines at appropriate density in the 96 well flat-bottomed plates and allowed to attach for 24 hours at 37° C., 5% CO2 and 95% humidified air (RPMI 8226 and U266 cells were plated in 96 well plates on the day of compound addition). Serially diluted NPI-1387 was added in triplicate to cells at concentrations ranging from 160 nM to 20 μM. Final concentration of 0.25% (v/v) DMSO was used as the vehicle control. Cell viability was assessed 48 hours later by measuring the fluorescence of the reduction product of Resazurin by a Fusion microplate fluorometer (PerkinElmer) with λex=535 nm and λem=590 nm filters. The IC50 values (the drug concentration at which 50% of the maximal observed cytotoxicity is established) were calculated in XLFit 3.0 or XLFit 4.0 (ID Business Solutions Ltd) using a sigmoidal dose response model.

For series [3], the system named is CCD-27sk (human normal skin fibroblast). Put plainly: 48 hr cytotoxicity, CCD-27sk. Type of series: cell-based. The settings on record: 48 hr drug exposure. How it is done: as §1, §2
Series [4] deals with peripheral blood mononuclear cells. Put plainly: viability of peripheral blood mononuclear cells from normal healthy donors. The format is cell-based. The source says: (§3) Besides nuclear condensation, NF-KB inhibitor triggered proteolytic cleavage of poly (ADP ribose) polymerase (PARP), a hallmark of apoptosis.
Series [5] relates to bortezomib-resistant DHL-4 lymphoma cells. Put plainly: viability of bortezomib-resistant DHL-4 lymphoma cells. The settings on record: 48 hours; 0, 12, 25 and 50 uM. Type of series: cell-based. How it is done:
Two cell-based assays were treated with NPI-1387 for 48 hours at concentrations of 0, 12, 25 and 50 uM. Both Bcl-2-overexpressing MM.1S cells and bortezomib-resistant DHL-4 lymphoma cells were used and the percentage of viable cells of each was recorded. […] (See FIG. 67).

The subject of series [6] is MM cells. Put plainly: apoptosis of MM cells (DAPI, PARP cleavage, caspases). The format is cell-based. The protocol: Transcription factor NF-KB is linked to growth and survival of multiple myeloma (MM) cells and blockade of NF-KB activity. NPI-1387 (Formula IIB-b1; compound 24 shown above under scheme 4), a potent small-molecule inhibitor of upstream activator of NF-KB, was administered to MM cells and its effect on the viability of MM cells, including those resistant to conventional agents dexamethasone or doxorubicin is shown.
as §3
Both caspase-8 and caspase-9 activate downstream caspase-3. […] Collectively, these findings show the efficacy of NF-KB inhibitor to enhance MM cell killing, overcome drug-resistance, and improve patient outcome in MM.

The subject of series [7] is PC-3 colony formation. Put plainly: PC-3 clonogenicity assay. Type of series: cell-based. How it is done: PC-3 cells in 10 cm tissue culture dishes (200 cells/dish) were treated with 5 μM, 10 μM and 20 μM NPI-1387 for 0.5-24 hours in triplicates. DMSO was used as vehicle control. After each time point of drug treatment, the medium was removed, the dishes were washed two times with Dulbecco's phosphate buffered saline (DPBS), and supplied with fresh medium. Cells were cultured for 10 days with the medium replenished every 3 days. On the 10th day, dishes were washed with cold DPBS, fixed for 10 minutes in ice-cold 100% methanol at 4° C., and the colonies were stained with 0.5% (w/v) crystal violet. Colonies were counted manually, and the results expressed as % of colonies in relation to their respective vehicle control.

For the compound `C=C[C@@]1(C)CCC=C2[C@H]1CC[C@@H]1[C@](C)(C(=O)NC3CCCCC3)CCC[C@@]21C` [Formula (IIB-A1), N-Cyclohexylamide Derivative of TTL], the “phosphorylation levels of IκBα and p38 MAP kinase induced by LPS and TNF-α in RPMI 8226 cells” value in series [1] was “specifically inhibits LPS-induced phosphorylation of IκBα and p38 MAP kinase”; in series [1] (listed as formula (IIB-A1)), “specifically decreases LPS-induced phosphorylation of IκBα and p38 MAP kinase”.

Consider `C=CC(=O)C1(C)CCCC2(C)C3=CCC(C)(C=C)C[C@@H]3CC[C@H]12` (stereo in doubt) [NPI-1387, 1-[(1S,4aS,7R)-1,4a,7-Trimethyl-7-vinyl-1,2,3,4,4a,6,7,8,8a,9,10,10a-dodecahydro-1-phenanthrenyl]-2-propen-1-one], for which the half-inhibitory concentration (IC50) in series [2] was 5.5 ± 0.8 µM; in series [2] (Homo sapiens, RPMI-8226, 48 h), 5.1 ± 1 µM; in series [3], no less than 20 µM. The “toxicity against / change in viable peripheral blood mononuclear cells” value in series [4] was “relatively minimal”; in series [4] (listed as NF-KB inhibitor), “no significant toxicity”. Besides, the “percentage of viable cells” value in series [5] is “marked decrease in the percentage of viable cells”. Further, the “Apoptic signaling in MM cells, intrinsic and extrinsic pathways” value in series [6] was “triggered by NPI-1387”. For the same compound, in series [6] (25 μM), the caspase activation entry is given as “induces activation of caspase-8, caspase-9, followed by caspase-3 cleavage”. Also, the “apoptosis (nuclear condensation, PARP cleavage)” value in series [6] (respective IC50 for 48 h) is on record as “significant apoptosis”. The PC-3 colony formation result in series [7] (5 μM, 10 μM and 20 μM for 0.5-24 hours) is “inhibits the colony formation of PC-3 cancer cells in a time-dependent and dose-dependent fashion”; in series [7] (exposure of 6 hr to 20 μM), “completely abolish”.

A word on the IC50: it is the midpoint of a concentration-inhibition curve. Low readings indicate higher potency, high ones lower potency.
